# Source: ChEMBL document CHEMBL5370643, “Discovery of MK-1468: A Potent, Kinome-Selective, Brain-Penetrant Amidoisoquinoline LRRK2 Inhibitor for the Potential Treatment of Parkinson's Disease” (J Med Chem, 2023)
# How the values were obtained:
# [1] = Unbound drug concentration in guinea pig plasma at 20 mg/kg, iv administered continuously for 20 mins; assay type: ADME, organism-based, Cavia porcellus; details: in vivo
# [2] = AUC in Wistar-Han rat at 750 mg/kg, po administered once daily for 7 days; assay type: ADME, organism-based; set-up: dose 750 mg/kg, time 7 day, route po; details: in vivo
# [3] = Kinetic solubility of compound in PBS at pH 2 measured after 24 hrs by UPLC/DAD analysis; assay type: physicochemical; details: read-out: Kinetic_solubility
# [4] = Intrinsic clearance in Wistar-Han rat at 3 mg/kg, iv measured after 24 hrs by LC-MS/MS analysis; assay type: ADME, organism-based; details: in vivo
# [5] = Toxicity in Wistar-Han rat assessed as effect on arterial pulse pressure at 225 mg/kg, po administered as single dose and measured upto 24 hrs by telemetric analysis; assay type: organism-based; details: in vivo
compound,measurement,setting,value
C[C@@]1(N2CCN(c3cc4cc(NC(=O)[C@H]5CC56CCOCC6)ncc4cc3Cl)CC2)COC[C@@H]1O,Cp(f),[1],11.9 µM
same,AUC at 168 h,[2],395 µM·h
same,solubility kinetic at 24 h,[3],182 µM
same,CL,[4],1435 mL/min/kg
same,Activity,[5],Non-Toxic
